Marks after values point to notes of the source that are not given here.
Experiments:
[1] = H2O2 antioxidant assay; format: biochemical; details: n = 3
Experimental: (§1) The antioxidant activity of PGEO was evaluated by using […] complementary methods, DPPH, FRAP, ABTS, and H2O2 assays, according to the previously published protocols. The results are expressed as the concentration of PGEO providing 50% inhibition (IC50) and calculated by plotting the inhibition degrees against the essential oil concentrations. Trolox and ascorbic acid were used as positive controls. The assays were carried out in triplicate, and the IC50 values were presented as means ± SD.

[2] = FRAP antioxidant assay; format: biochemical; details: n = 3
Experimental: as §1

[3] = DPPH antioxidant assay; format: biochemical; details: n = 3
Experimental: as §1

[4] = ABTS antioxidant assay; format: biochemical; details: n = 3
Experimental: as §1

[5] = system: Bacillus subtilis ATCC 6633; experiment: disc diffusion assay; format: cell-based; details: B. subtilis ATCC 6633; 50 μL of oil/well, chloramphenicol 30 µg; includes 6 mm well
Experimental: (§2) The antibacterial activity was evaluated against the following six bacterial strains representing Gram-positive and Gram-negative bacteria: Escherichia coli ATCC 25922, Proteus mirabilis ATCC 25933, Salmonella Typhimurium ATCC 700408, Bacillus subtilis ATCC 6633, Staphylococcus aureus ATCC 29213, and Listeria monocytogenes ATCC 13932. The tested bacterial strains were prepared by inoculating a loopful from the frozen stock (−20 °C) in Mueller–Hinton Agar (Biokar, Beauvais, France) and incubated at 37 °C for 24 h under an aerobic environment.
(§3) The primary screening of the antimicrobial activity of the studied samples was evaluated by the disc diffusion method according to the previously published investigation. Briefly, the culture suspension of each species was inoculated in Mueller–Hinton Agar (Biolife, Italiana, Milano-Italy). […] Chloramphenicol (30 µg) was used as a positive control for bacteria strains, while dimethylsulfoxide (DMSO) (10 µL; 5%) was used as a negative control. The plates were incubated at the following growth conditions; 37 °C for 24 h, 25 °C for 48 h, and 25 °C for 72 h for bacteria, yeast, and fungi, respectively. After incubation, the inhibitory diameters were measured in millimeters, and the results were expressed as means ± Standard Deviation of three replicates.

[6] = system: Listeria monocytogenes ATCC 13932; experiment: disc diffusion assay; format: cell-based; details: L. monocytogenes ATCC 13932; 50 μL of oil/well, chloramphenicol 30 µg; includes 6 mm well
Experimental: as §2, §3

[7] = system: Salmonella Typhimurium ATCC700408; experiment: disc diffusion assay; format: cell-based; details: S. Typhimurium ATCC700408; 50 μL of oil/well, chloramphenicol 30 µg; includes 6 mm well
Experimental: as §2, §3

[8] = system: Proteus mirabilis ATCC 25933; experiment: disc diffusion assay; format: cell-based; details: P. mirabilis ATCC 25933; 50 μL of oil/well, chloramphenicol 30 µg; includes 6 mm well
Experimental: as §2, §3

[9] = system: Escherchia coli ATCC 25922; experiment: disc diffusion assay; format: cell-based, Escherichia coli; details: E. coli ATCC 25922; 50 μL of oil/well, chloramphenicol 30 µg; includes 6 mm well
Experimental: as §2, §3

[10] = system: carrageenan-induced edema; design: method as in PMID 12587692; details: 32, 64, and 96 mg/kg; cited from earlier work
[11] = system: diabetic animals; design: method as in PMID 28549291; details: daily doses 25, 50, and 100 mg/kg b.w.; cited from earlier work
[12] = system: monocytes; design: method as in PMID 9889172; details: in vitro; cited from earlier work
[13] = system: rats treated with ethanol for the induction of gastric ulcers; design: method as in PMID 24466200; details: 50 mg/kg; cited from earlier work
[14] = system: alloxan-induced diabetic mice; design: method as in doi:10.23893/1307-2080.APS.05522; details: 2 and 24 h after the treatment; cited from earlier work
[15] = system: COX-2; design: method as in PMID 26721216; details: cited from earlier work
[16] = system: occlusion of the middle cerebral artery in male rats; details: intraperitoneal 100 mg/kg, cited from earlier work
[17] = system: catabolic and inflammatory pathways induced by IL-1β; design: method as in PMID 24455984; details: in vitro; cited from earlier work
[18] = system: inflammatory responses by lipopolysaccharide (LPS) in mice; details: cited from earlier work

## O=C1O[C@H]([C@@H](O)CO)C(O)=C1O [Ascorbic Acid, Ascorbic acid]
[1]
  antioxidant activity IC50, H2O2: 23.34 ± 0.03 ^a μg/mL
[2]
  antioxidant activity IC50, FRAP: 31.47 ± 1.07 ^a μg/mL
[3]
  antioxidant activity IC50, DPPH: 15.13 ± 0.04 ^a μg/mL
[4]
  antioxidant activity IC50, ABTS: 42.22 ± 0.05 ^a μg/mL

## O=C(N[C@H](CO)[C@H](O)c1ccc([N+](=O)[O-])cc1)C(Cl)Cl [Chloramphenicol]
[5]
  inhibitory diameter: 15.87 ± 0.21 mm
[6]
  inhibitory diameter: 29.07 ± 0.58 mm
[7]
  inhibitory diameter: 13.17 ± 0.25 mm
[8]
  inhibitory diameter: 21.27 ± 0.21 mm
[9]
  inhibitory diameter: 22.47 ± 0.21 mm

## Cc1c(C)c2c(c(C)c1O)CCC(C)(C(=O)O)O2 (stereo not shown) [Trolox]
[2]
  antioxidant activity IC50, FRAP: 48.25 ± 0.05 ^b μg/mL
[3]
  antioxidant activity IC50, DPPH: 24.31 ± 0.02 ^b μg/mL
[4]
  antioxidant activity IC50, ABTS: 61.48 ± 1.32 ^b μg/mL

## C=CC(C)(CCC=C(C)C)OC(C)=O (stereo not shown) [linalyl acetate]
[10]
  carrageenan-induced edema: remarkable reduction

## CC1CCC(C(C)C)C(O)C1 (stereo not shown) [menthol]
[11]
  glycosylated hemoglobin, blood glucose levels: decreased glycosylated hemoglobin, blood glucose levels
[12]
  production of IL-1, PGE2, and LTB4: inhibit the production of inflammation mediators
[13]
  levels of IL-6 and TNF-α: reduced the levels of IL-6 and TNF-α

## CC1=CCC2CC1C2(C)C (stereo not drawn) [α-pinene]
[14]
  fasting blood glucose levels: reduce fasting blood glucose levels
[15]
  COX-2 overexpression: potent effect on COX-2 overexpression
[16]
  expression of IL-1 and TNF-α: decreased
[16]; striatum, cortex, and hippocampus
  concentration of IL-6, NO, and malondialdehyde (MDA): decreased
[17]
  expression of catabolic and inflammatory genes, activation of NF-κB and JNK: strongly inhibits
[18]
  synthesis of nitric oxide (NO), TNF-α, and IL-6: decrease the synthesis of nitric oxide (NO), TNF-α, and IL-6
